Assay [1] deals with CCRF-CEM. Nature of the assay: Cytostatic concentration required to inhibit cell proliferation in human CEM cell line; Range 10-50. It counts as functional.
The target of assay [2] is Human immunodeficiency virus type 1 reverse transcriptase (Human immunodeficiency virus 1, UniProt Q72547). As to the kind of experiment: Inhibitory concentration required to inhibit recombinant HIV-1 reverse transcriptase.
The subject of assay [3] is CCRF-CEM. Nature of the assay: Ratio of cytostatic concentration to effective concentration in human CEM cell line; Range 1000-5000. It counts as functional.
Assay [4] has as its system Human immunodeficiency virus 2. As to the kind of experiment: Effective concentration required to inhibit HIV-2 induced cytopathicity in human MT-4 cell line. Type of assay: functional, organism-based. The settings on record: Human immunodeficiency virus 2, MT4. In general terms: Protection from cytopathic effect is a common read-out in antiviral testing.
Assay [5] deals with Human immunodeficiency virus 2. Nature of the assay: Effective concentration required to inhibit HIV-2 induced cytopathicity in human CEM cell line. It counts as functional, organism-based. The settings on record: Human immunodeficiency virus 2, CCRF-CEM.
The test system of assay [6] is Human immunodeficiency virus 1. As to the kind of experiment: Effective concentration required to inhibit HIV-1/138K induced cytopathicity in human CEM cell line. It counts as functional, organism-based. The settings on record: Human immunodeficiency virus 1, CCRF-CEM.
The test system of assay [7] is Human immunodeficiency virus 1. As to the kind of experiment: Effective concentration required to inhibit HIV-1 induced cytopathicity in human CEM cell line. Type of assay: functional, organism-based. The settings on record: Human immunodeficiency virus 1, CCRF-CEM.
Assay [8] has as its system CCRF-CEM. As to the kind of experiment: Cytostatic concentration required to inhibit cell proliferation in human CEM cell line. Type of assay: functional.
The subject of assay [9] is CCRF-CEM. As to the kind of experiment: Ratio of cytostatic concentration to effective concentration in human CEM cell line. It counts as functional.
Assay [10] relates to Human immunodeficiency virus 1. As to the kind of experiment: Effective concentration required to inhibit HIV-1 induced cytopathicity in human MT-4 cell line. It counts as functional, organism-based. The settings on record: Human immunodeficiency virus 1, MT4.

Usually CC50 stands for the concentration at which the toxic effect on the cells reaches its halfway point. Read a high CC50 as lower toxicity to the cells. In general, IC50 refers to the concentration at which inhibition is half-maximal. What is called EC50 is the concentration that produces a half-maximal response. `CNC(=O)CCCCn1c(=O)c(C)cn([C@@H]2O[C@H](CO[Si](C)(C)C(C)(C)C)[C@@]3(OS(=O)(=O)C=C3N)[C@H]2O[Si](C)(C)C(C)(C)C)c1=O`: in the assay with CCRF-CEM [1], the CC50 is 50 µM. Also, the half-maximal inhibitory concentration (IC50) in assay [2] was determined as 0.56 µM. In addition, the SI with CCRF-CEM [3] is recorded as 5000. Also, the EC50 is above 10 µM in assay [4], above 10 µM in assay [5], at least 2 µM in assay [6] and 0.01 µM in [7].
Consider `Cc1cn([C@@H]2O[C@H](CO[Si](C)(C)C(C)(C)C)[C@@]3(OS(=O)(=O)C=C3N)[C@H]2O[Si](C)(C)C(C)(C)C)c(=O)n(CCO)c1=O`, for which, in the assay with CCRF-CEM [8], the CC50 came out at 11.3 µM. Besides, the IC50 in assay [2] was 3.1 µM. In addition, in the assay on CCRF-CEM [9], the SI was 282. Also, the EC50 was above 10 µM in [4]; 0.06 µM in [10]; above 10 µM in assay [5]; 8 µM in [6]; 0.04 µM in assay [7].
Take `Cc1cn([C@@H]2O[C@H](CO[Si](C)(C)C(C)(C)C)[C@@]3(OS(=O)(=O)C=C3N)[C@H]2O[Si](C)(C)C(C)(C)C)c(=O)n(CC(=O)N(C)C)c1=O`: the CC50 in the assay on CCRF-CEM [8] was found to be 245 µM. Further, the IC50 in assay [2] came to 3.5 µM. The SI with CCRF-CEM [9] came out at 12250. Besides, the EC50 in assay [4] was above 250 µM; in assay [10] it was 0.04 µM; in assay [5] it was above 250 µM; in assay [6] it was 4.5 µM; in assay [7] it was 0.02 µM.
On to `CCCCOC(=O)CN(CCCn1c(=O)c(C)cn([C@@H]2O[C@H](CO[Si](C)(C)C(C)(C)C)[C@@]3(OS(=O)(=O)C=C3N)[C@H]2O[Si](C)(C)C(C)(C)C)c1=O)CC(=O)OCCCC`, for which, in the assay with CCRF-CEM [8], the CC50 is above 250 µM. Moreover, in assay [2], the 50% inhibitory concentration (IC50) was above 500 µM. Further, in the assay on CCRF-CEM [9], the SI is 71. For the same molecule, the EC50 in [4] was above 250 µM; in assay [10], 12.8 µM; in assay [5], above 250 µM; in [6] it was above 250 µM; in assay [7], 3.5 µM.
The molecule `Cc1cn([C@@H]2O[C@H](CO[Si](C)(C)C(C)(C)C)[C@@]3(OS(=O)(=O)C=C3N)[C@H]2O[Si](C)(C)C(C)(C)C)c(=O)n(C/C=C/CO)c1=O` displayed a CC50 in the assay with CCRF-CEM [8] of 4.41 µM. The IC50 in assay [2] was 4.5 µM. Also, the SI in the assay with CCRF-CEM [9] was 220. Moreover, the EC50 is above 2 µM in [4]; 0.07 µM in assay [10]; above 2 µM in assay [5]; 4.5 µM in assay [6]; 0.02 µM in assay [7].
Regarding `Cc1cn([C@@H]2O[C@H](CO[Si](C)(C)C(C)(C)C)[C@@]3(OS(=O)(=O)C=C3N)[C@H]2O[Si](C)(C)C(C)(C)C)c(=O)n(Cc2ccccc2)c1=O`, the CC50 with CCRF-CEM [8] is 53 µM. The IC50 in assay [2] is above 500 µM. Besides, the SI with CCRF-CEM [9] is recorded as 294. Moreover, the EC50 in assay [4] was above 50 µM; in assay [10], 0.47 µM; in assay [5], above 50 µM; in assay [6], above 50 µM; in assay [7] it was 0.18 µM.
As for `COCCn1c(=O)c(C)cn([C@@H]2O[C@H](CO[Si](C)(C)C(C)(C)C)[C@@]3(OS(=O)(=O)C=C3N)[C@H]2O[Si](C)(C)C(C)(C)C)c1=O`, in the assay on CCRF-CEM [8], the midpoint of cytotoxicity, the CC50, lay at 38.8 µM. Further, in [2], the IC50 stood at 2.9 µM. Besides, in the assay on CCRF-CEM [9], the SI came out at 485. Further, the EC50 in assay [4] was above 10 µM; in assay [10] it was 0.16 µM; in [5], above 10 µM; in [6], above 10 µM; in assay [7] it was 0.08 µM.
`Cc1cn([C@@H]2O[C@H](CO[Si](C)(C)C(C)(C)C)[C@@]3(OS(=O)(=O)C=C3N)[C@H]2O[Si](C)(C)C(C)(C)C)c(=O)n(CCCNC(=O)OCc2ccccc2)c1=O` registered a CC50 in the assay with CCRF-CEM [8] of 229 µM. The IC50 in assay [2] was above 500 µM. Besides, the SI in the assay with CCRF-CEM [9] is on record as 1526. The EC50 was above 50 µM in assay [4]; 0.17 µM in assay [10]; above 50 µM in [5]; above 50 µM in assay [6]; 0.15 µM in assay [7].

Source of the values: ChEMBL document CHEMBL1141126, “Improving the antiviral efficacy and selectivity of HIV-1 reverse transcriptase inhibitor TSAO-T by the introduction of functional groups at the N-3 position” (J Med Chem, 2005).
